# From patent publication US9714247B2, “Multiple kinase pathway inhibitors” (Mannkind Corporation, priority 2012, dated 2017)
# Like-named read-outs stand apart in the source and are kept apart here.
# Experiments:
# [1] = tested on: PLCγ2 phosphorylation in Ramos cells; assay: PLCγ2 phosphorylation by Western blotting; type: cell-based, human; conditions: anti-IgM/H2O2 stimulation, Tyr1217
# Protocol: Ramos cells were cultured in RPMI 1640 media with 10% FBS and were starved overnight (18 h) in 1% FBS containing media and on the next day pretreated with inhibitor for 2 h before stimulation. Cells were stimulated to induce BTK network dependent signal transduction pathways using mouse anti-human IgM (final concentration 10 ug/ml; Invitrogen) antibodies and 3.3 mM H2O2 mixture for 2 minutes followed by F(Ab) fragment that cross-linked the anti-IgM antibody (final concentration 10 ug/ml), and 3.3 mM H2O2 for 8 minutes. Cell lysates were prepared in lysis buffer containing protease and phosphatase inhibitors, quantified using the BCA protein assay kit (Pierce) and used for Western blotting. Antibodies specifically targeted to the molecules of interest, PLCγ2 phosphorylated at Tyr1217 and total PLCγ2, (Cell Signaling Technology) were used in a standard Western blotting procedure.
# Phosphorylation of PLCγ2 at Tyr1217 along with Tyr753, Tyr759 and Tyr1197 is correlated with increased PLCγ2 activity. The readout for BTK network signaling was inhibition of phosphorylation of PLCγ2 induced by the anti-IgM treatment.
# [2] = tested on: phosphorylation of SFKs in Ramos cells; assay: SFK phosphorylation (Tyr 416) by Western blotting; type: cell-based, human; conditions: pretreated 2 hours
# Protocol: Ramos cell lysates from stimulated and unstimulated cells were analyzed for the levels of phosphorylated SRC family members. As described in Example 82 (above), cells were pretreated for 2 hours with an amino naphthyridinones and then stimulated with anti-IgM antibody and H2O2, protein lysates were prepared, quantified and used for Western blotting. A commercially available antibody that detects Src phosphorylated at Tyr 416 (Cell Signalling) and may cross-react with other Src family members such as Lyn, Fyn, Lck, Yes and Hck when phosphorylated at equivalent sites was used for Western blot analysis. The molecular weights of SFK family members are quite similar (in the 55-60 kDa range) and different family members cannot be resolved by the conditions used for the Western blot. […] The procedure can be similarly adapted for flow cytometric analysis as with the PLC-γ2 assay in Example 82. Ramos cells were incubated with Compound 1 for 2 hrs in RPMI media with 5% FBS prior to stimulation stimulated with H2O2/anti-IgM/F(Ab) for 10 minutes. Cells were evaluated by FACS analysis using anti-pSRC antibody and FITC-conjugated goat anti-rabbit secondary antibody following overnight storage at 4° C. in BD perm/wash buffer.
# DoHH2 cells = conditions: treated 24 hours
# Lyn [3] = target: T1, Lyn (Homo sapiens (Human), UniProt P07948); assay: biochemical
# T1 sequence (P07948 whole entry): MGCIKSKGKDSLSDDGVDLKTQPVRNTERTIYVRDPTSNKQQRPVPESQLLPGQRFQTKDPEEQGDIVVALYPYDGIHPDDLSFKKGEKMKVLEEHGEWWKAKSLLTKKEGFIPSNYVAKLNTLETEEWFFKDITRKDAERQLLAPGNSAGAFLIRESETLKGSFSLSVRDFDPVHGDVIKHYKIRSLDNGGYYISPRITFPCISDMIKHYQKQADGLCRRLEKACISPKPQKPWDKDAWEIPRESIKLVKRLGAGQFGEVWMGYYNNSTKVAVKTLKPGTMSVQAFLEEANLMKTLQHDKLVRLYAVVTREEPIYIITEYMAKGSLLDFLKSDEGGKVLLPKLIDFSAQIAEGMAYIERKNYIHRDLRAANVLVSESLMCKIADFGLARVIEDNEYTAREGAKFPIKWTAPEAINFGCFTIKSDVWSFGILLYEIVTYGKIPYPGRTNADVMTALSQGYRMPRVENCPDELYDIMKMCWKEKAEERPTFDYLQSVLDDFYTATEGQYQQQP
# DoHH2 [4] = assay: CellTiter-Glo proliferation/viability assay; type: cell-based, human; conditions: Homo sapiens, DOHH-2
# Src = Src (Homo sapiens (Human), UniProt P12931); assay: biochemical
# Sequence of Src (P12931 whole entry, looked up): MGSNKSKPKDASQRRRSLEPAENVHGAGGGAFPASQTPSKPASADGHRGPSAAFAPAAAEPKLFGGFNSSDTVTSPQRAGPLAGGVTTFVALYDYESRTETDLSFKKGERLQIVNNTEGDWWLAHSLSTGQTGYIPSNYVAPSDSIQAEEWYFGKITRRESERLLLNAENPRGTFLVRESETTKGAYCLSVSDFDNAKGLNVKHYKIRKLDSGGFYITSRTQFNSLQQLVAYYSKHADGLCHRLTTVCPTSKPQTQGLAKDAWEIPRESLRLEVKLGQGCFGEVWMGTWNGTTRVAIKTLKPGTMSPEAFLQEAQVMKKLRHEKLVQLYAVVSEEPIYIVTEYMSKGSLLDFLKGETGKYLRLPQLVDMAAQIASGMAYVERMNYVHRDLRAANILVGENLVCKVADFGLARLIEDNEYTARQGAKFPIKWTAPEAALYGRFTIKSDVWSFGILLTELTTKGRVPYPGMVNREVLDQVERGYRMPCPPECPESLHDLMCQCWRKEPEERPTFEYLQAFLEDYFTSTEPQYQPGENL
# [5] = tested on: PLCγ2 phosphorylation in Ramos cells; assay: PLCγ2 phosphorylation by flow cytometry; type: cell-based, human; conditions: Homo sapiens, flow cytometry, anti-phospho PLCγ2 (Tyr1217), four concentrations, read-out: Inhibition of phosphorylation of PLC-γ2 EC50
# Method in brief: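 Ramos cells starved 18 h in 1% FBS, pretreated with inhibitor 2 h, then stimulated with anti-IgM (10 ug/ml final) plus 3.3 mM H2O2 for 2 min, then cross-linking F(ab) (10 ug/ml) plus H2O2 for 8 min. Fixed, permeabilized cells stained with PE anti-phospho-PLCγ2 (Tyr1217 or Tyr759), dead cells gated out; ED50 from geometric mean fluorescence over four inhibitor concentrations.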
# Ramos [6] = assay: CellTiter-Glo proliferation/viability assay; type: cell-based, human; conditions: Homo sapiens, Ramos
# Lyn [7] = target: T1, Lyn; conditions: read-out: Lyn IC50
# BTK = BTK (Homo sapiens (Human), UniProt Q06187)
# Sequence of BTK (Q06187 whole entry): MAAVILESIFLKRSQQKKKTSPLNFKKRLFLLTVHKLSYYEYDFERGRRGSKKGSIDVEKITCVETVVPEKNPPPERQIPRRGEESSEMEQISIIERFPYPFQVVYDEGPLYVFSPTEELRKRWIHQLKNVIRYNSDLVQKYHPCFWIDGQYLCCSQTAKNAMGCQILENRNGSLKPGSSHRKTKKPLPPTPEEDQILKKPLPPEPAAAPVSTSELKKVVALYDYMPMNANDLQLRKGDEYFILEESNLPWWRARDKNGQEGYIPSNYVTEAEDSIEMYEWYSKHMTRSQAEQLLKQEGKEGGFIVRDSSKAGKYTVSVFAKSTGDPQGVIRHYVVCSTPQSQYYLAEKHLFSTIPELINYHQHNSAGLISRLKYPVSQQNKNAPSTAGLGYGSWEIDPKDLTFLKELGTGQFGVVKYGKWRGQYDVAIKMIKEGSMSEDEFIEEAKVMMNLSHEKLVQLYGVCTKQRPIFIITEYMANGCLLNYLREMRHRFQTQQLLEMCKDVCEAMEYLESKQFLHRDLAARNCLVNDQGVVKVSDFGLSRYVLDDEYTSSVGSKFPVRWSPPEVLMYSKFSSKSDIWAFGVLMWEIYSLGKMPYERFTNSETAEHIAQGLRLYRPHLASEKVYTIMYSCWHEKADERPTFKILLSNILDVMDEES
# Ramos [8] = conditions: cited from earlier work
# PC3 = assay: Proliferation/viability assay; type: cell-based; conditions: Homo sapiens, PC-3; Table 10; Prostate Ca; read-out: Effect on Tumor Cell Growth EC50, PC3
# SuDHL6 = assay: Proliferation/viability assay; type: cell-based; conditions: Homo sapiens, SU-DHL-6; Table 10; B Lymphoma; read-out: Effect on Tumor Cell Growth EC50, SuDHL6
# RPMI8226 = assay: Proliferation/viability assay; type: cell-based; conditions: Homo sapiens, RPMI-8226; Table 10; Myeloma; read-out: Effect on Tumor Cell Growth EC50, RPMI 8226
# DoHH2 [9] = conditions: cited from earlier work
# [10] = Table 10, B Lymphoma, read-out: Effect on Tumor Cell Growth EC50, DOHH2
# [11] = Table 10, B Lymphoma, read-out: Effect on Tumor Cell Growth EC50, Ramos
Compound,Resistance of Ramos to known kinase inhibitors (Ramos [8]),EC50 (DoHH2 [4]; [10]) [nM],EC50 (Ramos [6]; [11]) [nM],EC50 (PC3) [nM],EC50 (SuDHL6) [nM],Response of DoHH2 to known drugs (DoHH2 [9]),further results
"CCN(CC)CCOc1ccc(Nc2cc3c(cn2)cc(-c2ccccc2)c(=O)n3C2CCOCC2)nc1 [Compound 70, 7-(5-(2-(diethylamino)ethoxy)pyridin-2-ylamino)-3-phenyl-1-(tetrahydro-2H-pyran-4-yl)-1,6-naphthyridin-2(1H)-one]",,,,,,,"Inhibition of PLCγ2 phosphorylation (Western blot) [1]: observed this inhibition; Inhibition of phosphorylation of SFKs (Western blot) [2]: dose-dependent decrease of phosphorylation of SFKs; Effect on Cell Cycle (DoHH2 cells): G1 Arrest; IC50 (Lyn [3]): 100 to 1000 nM; EC50 (DoHH2 [4]; 48 hrs, read-out: DoHH2 EC50): < 1000 nM; EC50 (DoHH2 [4]; Table 4, DoHH2 cells, read-out: EC50 (Proliferation)): < 1000 nM; IC50 (Src): 100 to 1000 nM; EC50 [5]: 330 nM; EC50 (Ramos [6]; 48 hrs, read-out: Ramos EC50): > 10000 nM; IC50 (Lyn [7]): 100 to 1000 nM; IC50 (BTK): 100 to 1000 nM; IC50 (BTK; read-out: BTK IC50): 100 to 1000 nM"
Cc1ccc(NC(=O)c2ccc(CN3CC[C@H](N(C)C)C3)c(C(F)(F)F)c2)cc1Nc1nccc(-c2cncnc2)n1 [Inno-406],resistant,6900,7300,> 10000,5700,,
"C=CC(=O)N1CCC[C@@H](n2nc(-c3ccc(Oc4ccccc4)cc3)c3c(N)ncnc32)C1 [PCI-32765, ibrutinib]",resistant,2800,> 10000,> 10000,5500,responds,EC50 (RPMI8226): > 10000 nM
Cc1nc(Nc2ncc(C(=O)Nc3c(C)cccc3Cl)s2)cc(N2CCN(CCO)CC2)n1 [dasatinib],resistant,,,,,responds,
